The values that follow are results of earlier work, collected in patent US20020137779A1, “Use of L-2-oxothiazolidine-4-carboxylic acid for the treatment of type 2 diabetes” (Advanced Biochemicals Inc., priority 2001, published 2002).

In this data set the test system is mice. To be noted: oral administration at 9.5 mmol/kg in mice; cited from earlier work.

As to `CC(=O)Nc1ccc(O)cc1` [acetaminophen, reference compound], the mortality entry is given as “more than 90%”.
